Test results published in patent US9555009B2, “Ciprofloxacin loaded diethylaminoethyl cellulose nanoparticles” (priority 2014, dated 2017).

Details: XRD

- average crystallite size / particle size by Scherrer's equation: 3.22 nm
SMILES: O=C(O)c1cn(C2CC2)c2cc(N3CCNCC3)c(F)cc2c1=O [pure ciprofloxacin, Ciprofloxacin]
